Marks after values point to notes of the source that are not given here.
System: IKr ion currents
Experiment: First validation: ECG repolarization changes (QTc, ERDc, LRDc) on sotalol versus baseline
Type: in vivo
Conditions: median (standard deviation); for ERDc 50%, Δ on drug - baseline / LRDc 50%, Δ on drug - baseline: individual correction formula
From the text: FIG. 2 illustrates one embodiment of a such a method for assessing repolarization abnormalities. At least two repolarization signals are identified 30 from a set of ECG signals. The ECG signals may be obtained from a variety of ECG capture devices as discussed above. The ECG signals may be obtained in “real-time” from a subject, or the ECG signals may be obtained from a database (which should be understood to include memory devices) storing previously obtained ECG signals.
Once the at least two repolarization signals are identified 30, principal component analysis 32 can be done on the repolarization signals to extract eigenvectors ev1 and ev2. Principal component analysis (PCA) is a way of identifying patterns in data, and is especially useful in dealing with multi-dimensional data, such as multiple repolarization signals from multiple ECG leads. PCA analysis is a mathematical technique which those skilled in the art will be familiar with, and results in a matrix of eigenvectors. As a summary of the PCA analysis, first, the mean is subtracted from each of the data dimensions. This produces a data set whose mean is zero. Next, a covariance matrix is calculated for the data. If the data has n-dimensions, then the covariance matrix will be a square n-by-n matrix. Mathematical constructs called eigenvectors and eigenvalues may be calculated for a square matrix, and so next, a set of eigenvectors and eigenvalues are calculated for the covariance matrix. For the n-by-n covariance matrix, there will be n eigenvectors. The eigenvectors are orthogonal to each other, and each has a corresponding eigenvalue. The eigenvectors can be thought of as a representation of the multi-dimension data. The eigenvector with the highest eigenvalue is the principal component of the data set. The eigenvectors may be sorted from highest to lowest, and the eigenvectors with the two highest eigenvalues may be referred to as ev1 and ev2 respectively.
Once the PCA analysis 32 has been completed, a maximum vector MV may be determined 34 based on a transformed ECG signal in a preferential plane defined by ev1 and ev2. Mathematically, MV is detected at time t=TMV, where equation 1 is fulfilled: MV=max ? {right arrow over (VECG)}(t)−{right arrow over (VECG)}(TQ) ? , Equation 1)
Referring again to FIG. 2, once the maximum vector MV has been determined, a repolarization duration which is based on the maximum vector MV is determined 36. The repolarization duration may be determined 36 by taking an arbitrary threshold percentage of the magnitude of MV and projecting the threshold magnitude relative to an endpoint of MV to determine a beginning point and an ending point on the transformed ECG signal in the plane defined by ev1 and ev2. An example of this process can be seen graphically in FIG. 3. In the example of FIG. 3, the arbitrary threshold percentage of the magnitude of MV is 30%. This threshold magnitude of 30% MV (or 30% Vmax) is projected in a circle or arc 38 around the endpoint of MV, which is labeled Vmax. Where the projected threshold 38 crosses 40 the transformed ECG signal 42 (or T-loop) on a first side of the endpoint of MV, we can define a beginning point. Since the data points are samples in time, the beginning point may be designated as the closest true data point 44 to the crossing point 40. Alternatively, the beginning point may be an interpolated data point based on the two closest data points 44 and 46. Where the projected threshold 38 crosses 48 the transformed ECG signal 42 (or T-loop) on a second side of the endpoint of MV, we can define an ending point. Since the data points are samples in time, the ending point may be designated as the closest true data point 50 to the crossing point 48. Alternatively, the ending point may be an interpolated data point based on the two closest data points 50 and 52. […]

CC(C)NCC(O)c1ccc(NS(C)(=O)=O)cc1 (stereo not drawn) [sotalol]
QTc L II, Δ on drug - baseline (42′-48′ after dosing): 4.0(16) ms
ERDc 50%, Δ on drug - baseline (42′-48′ after dosing): 5.1(14)* ms
LRDc 50%, Δ on drug - baseline (42′-48′ after dosing): 1.1(6.2)* ms
QTc L II, Δ on drug - baseline (48′-54′ after dosing): 4.1(16) ms
ERDc 50%, Δ on drug - baseline (48′-54′ after dosing): 4.9(14)* ms
LRDc 50%, Δ on drug - baseline (48′-54′ after dosing): 0.6(5.2)* ms
QTc L II, Δ on drug - baseline (54′-1 h after dosing): 4.3(16)* ms
ERDc 50%, Δ on drug - baseline (54′-1 h after dosing): 4.4(12) ms
LRDc 50%, Δ on drug - baseline (54′-1 h after dosing): 0.3(6.5) ms
QTc L II, Δ on drug - baseline (1 h-1 h 6′ after dosing): 13(17)* ms
ERDc 50%, Δ on drug - baseline (1 h-1 h 6′ after dosing): 9.5(16)** ms
LRDc 50%, Δ on drug - baseline (1 h-1 h 6′ after dosing): 4.0(5.9)** ms
